Earlier results in patent US11737458B2, “Fibrous substrate for capture of gram negative bacteria” (Kimberly-Clark Worldwide, Inc., priority 2015, dated 2023).

For C=CC(=O)O [acrylic acid], the pKa value is given as “about 4.3”.
